Experimental data reported in DBAASP.
In brackets after ≈: the same amount, converted by molar mass.

Key:
Assay in all cases: ≥ marks a high value that may be exact or a test limit, other limits are often not marked, values filed in µg/mL are converted to µM
[1] = test system: Staphylococcus aureus ATCC 25923
[2] = test system: Bacillus subtilis ATCC 6051
[3] = test system: Pseudomonas aeruginosa ATCC 27853
[4] = test system: Escherichia coli ATCC 25922
[5] = test system: Micrococcus luteus ATCC 9341
Escherichia coli B = test system: Escherichia coli B
Staphylococcus aureus = test system: Staphylococcus aureus
Bacillus subtilis 168 = test system: Bacillus subtilis 168
Pseudomonas aeruginosa = test system: Pseudomonas aeruginosa
Escherichia coli JW0013 = test system: Escherichia coli JW0013
Escherichia coli = test system: Escherichia coli
Staphylococcus aureus MR = test system: Staphylococcus aureus MR
Bacillus cereus = test system: Bacillus cereus
[6] = test system: Staphylococcus aureus ATCC 2592
[7] = test system: Candida albicans ATCC 2002
Shigella dysenteriae = test system: Shigella dysenteriae
Proteus mirabilis = test system: Proteus mirabilis
Bacillus subtilis = test system: Bacillus subtilis
Salmonella typhimurium = test system: Salmonella typhimurium
Micrococcus luteus = test system: Micrococcus luteus
[8] = test system: Staphylococcus epidermidis
Klebsiella pneumoniae = test system: Klebsiella pneumoniae
[9] = test system: Klebsiella pneumoniae ATCC 10031
[10] = test system: Salmonella enterica subsp. enterica serovar Typhimurium ATCC 14028
[11] = test system: Escherichia coli DH5alpha

Q: Which results are given for `CC[C@H](C)[C@H](NC(=O)[C@H](CC(N)=O)NC(=O)[C@H](Cc1ccccc1)NC(=O)[C@H](CC(C)C)NC(=O)CN)C(=O)N[C@H](C(=O)N[C@@H](CCCCN)C(=O)N[C@@H](CCCCN)C(=O)N[C@H](C(=O)N[C@H](C(=O)NCC(=O)N[C@@H](CCCCN)C(=O)N[C@@H](CC(C)C)C(=O)N[C@@H](CCCN=C(N)N)C(=O)O)[C@@H](C)CC)[C@@H](C)O)[C@@H](C)CC` [GLFNIIKKTIGKLR]?
A: MIC [1]: 160 µM (≈ 256 µg/mL); MIC [2]: ≥ 40 µM; MIC [3]: 20 µM (≈ 32 µg/mL); MIC [4]: 40 µM (≈ 64 µg/mL)

Q: Which MIC [5] does the source give for `CC(C)C[C@H](NC(=O)[C@H](C)N)C(=O)N1CCC[C@H]1C(=O)N[C@@H](Cc1c[nH]c2ccccc12)C(=O)N[C@@H](CCCCN)C(=O)N[C@@H](Cc1c[nH]c2ccccc12)C(=O)N1CCC[C@H]1C(=O)N[C@@H](Cc1c[nH]c2ccccc12)C(=O)N[C@@H](Cc1c[nH]c2ccccc12)C(=O)N1CCC[C@H]1C(=O)N[C@@H](Cc1c[nH]c2ccccc12)C(=O)N[C@@H](CCCN=C(N)N)C(=O)N[C@@H](CCCN=C(N)N)C(N)=O` [ALPWKWPWWPWRR] here?
A: 0.4 µM (≈ 0.746 µg/mL)

Q: For `CC[C@H](C)[C@H](NC(=O)[C@H](CC(C)C)NC(=O)[C@H](CCCCN)NC(=O)CNC(=O)[C@H](CC(C)C)NC(=O)[C@@H](NC(=O)[C@H](CCCCN)NC(=O)[C@H](CO)NC(=O)[C@H](Cc1c[nH]c2ccccc12)NC(=O)[C@H](CCCCN)NC(=O)CN)[C@@H](C)CC)C(=O)N[C@@H](CCCN=C(N)N)C(N)=O` [GKWSKILGKLIR], which MIC (Escherichia coli B) is on record?
A: 2.3 µM (≈ 3.21 µg/mL)

Q: What about the MIC (Staphylococcus aureus) of the same compound?
A: 21.7 µM (≈ 30.3 µg/mL)

Q: What about the MIC (Bacillus subtilis 168) of the same compound?
A: 1.7 µM (≈ 2.38 µg/mL)

Q: What about the MIC (Pseudomonas aeruginosa) of the same compound?
A: 28.3 µM (≈ 39.6 µg/mL)

Q: How did the MIC (Escherichia coli JW0013) turn out when `CC[C@H](C)[C@H](NC(=O)[C@H](CCCN=C(N)N)NC(=O)[C@H](CCCN=C(N)N)NC(=O)[C@@H]1CCCN1C(=O)[C@@H]1CCCN1C(=O)[C@H](CCCN=C(N)N)NC(=O)[C@@H]1CCCN1C(=O)[C@H](CCCN=C(N)N)NC(=O)[C@@H]1CCCN1C(=O)[C@H](CCCN=C(N)N)NC(=O)[C@H](CCCN=C(N)N)NC(=O)[C@@H]1CCCN1C(=O)[C@H](CCCCN)NC(=O)[C@H](CCCCN)NC(=O)[C@H](CC(=O)O)NC(=O)[C@@H](N)C(C)C)C(=O)N[C@@H](Cc1ccc(O)cc1)C(=O)N[C@@H](CC(N)=O)C(=O)N[C@@H](CCCN=C(N)N)C(N)=O` [VDKKPRRPRPRPPRRIYNR] was run?
A: 1.34 µM (≈ 3.3 µg/mL)

Q: `CC[C@H](C)[C@H](N)C(=O)N[C@@H](CC(C)C)C(=O)N1CCC[C@H]1C(=O)N[C@@H](Cc1c[nH]c2ccccc12)C(=O)N[C@@H](CCCCN)C(=O)N[C@@H](Cc1c[nH]c2ccccc12)C(=O)N1CCC[C@H]1C(=O)N[C@@H](Cc1c[nH]c2ccccc12)C(=O)N[C@@H](Cc1c[nH]c2ccccc12)C(=O)N1CCC[C@H]1C(=O)N[C@@H](Cc1c[nH]c2ccccc12)C(=O)N[C@@H](CCCCN)C(=O)N[C@@H](CCCCN)C(N)=O` [ILPWKWPWWPWKK] was tested. Which MIC [5] did it give?
A: 0.4 µM (≈ 0.74 µg/mL)

Q: What about the MIC [4] of the same compound?
A: 16 µM (≈ 29.6 µg/mL)

Q: Which MIC (Escherichia coli) does the source give for `CC[C@H](C)[C@H](NC(=O)[C@H](C)NC(=O)[C@H](CC(C)C)NC(=O)[C@H](CC(C)C)NC(=O)[C@H](CC(C)C)NC(=O)[C@H](C)N)C(=O)N[C@@H](CCCN=C(N)N)C(=O)N[C@@H](CCCCN)C(=O)N[C@@H](CCCN=C(N)N)C(N)=O` [ALLLAIRKR] here?
A: 5.7 µM (≈ 5.99 µg/mL)

Q: And the MIC (Staphylococcus aureus)?
A: 3.8 µM (≈ 4 µg/mL)

Q: And the MIC (Staphylococcus aureus MR)?
A: ≥ 38 µM

Q: And the MIC (Pseudomonas aeruginosa)?
A: 3.8 µM (≈ 4 µg/mL)

Q: Which results are given for `CC[C@H](C)[C@H](NC(=O)[C@H](CCCCN)NC(=O)[C@H](C)NC(=O)[C@H](CC(C)C)NC(=O)[C@@H](NC(=O)[C@H](CCCCN)NC(=O)[C@H](CCCCN)NC(=O)[C@H](Cc1c[nH]c2ccccc12)NC(=O)[C@H](CC(N)=O)NC(=O)[C@@H](N)C(C)C)C(C)C)C(=O)N[C@H](C(=O)N[C@@H](CCCCN)C(=O)N[C@H](C(=O)N[C@@H](C)C(=O)N[C@@H](CCCCN)C(N)=O)C(C)C)[C@@H](C)CC` [VNWKKVLAKIIKVAK]?
A: MIC (Escherichia coli B): 0.7 µM (≈ 1.22 µg/mL); MIC (Staphylococcus aureus): 7.2 µM (≈ 12.5 µg/mL); MIC (Bacillus subtilis 168): 0.6 µM (≈ 1.04 µg/mL); MIC (Pseudomonas aeruginosa): 26.9 µM (≈ 46.7 µg/mL)

Q: `CSCC[C@H](NC(=O)[C@H](CO)NC(=O)[C@H](Cc1ccc(O)cc1)NC(=O)[C@H](C)NC(=O)[C@@H](N)CCCCN)C(=O)N1CCC[C@H]1C(=O)N[C@@H](CCCN=C(N)N)C(=O)N[C@H]1CSSC[C@@H](C(=O)N[C@@H](Cc2c[nH]c3ccccc23)C(=O)N[C@@H](CC(C)C)C(N)=O)NC(=O)[C@H](CC(C)C)NC(=O)[C@H](C(C)C)NC(=O)[C@H](C)NC(=O)[C@H](CCCN=C(N)N)NC(=O)[C@H](Cc2ccccc2)NC(=O)[C@H](CC(C)C)NC(=O)[C@H](Cc2ccc(O)cc2)NC(=O)[C@H](CCCCN)NC1=O` [KAYSMPRCKYLFRAVLCWL] was tested. Which MIC (Bacillus cereus) did it give?
A: 21.3 µM (≈ 49.9 µg/mL)

Q: What about the MIC [6] of the same compound?
A: 5.32 µM (≈ 12.5 µg/mL)

Q: What about the MIC [7] of the same compound?
A: ≥ 42.6 µM

Q: What about the MIC (Shigella dysenteriae) of the same compound?
A: 5.32 µM (≈ 12.5 µg/mL)

Q: And the MIC (Pseudomonas aeruginosa)?
A: 10.6 µM (≈ 25 µg/mL)

Q: What about the MIC [4] of the same compound?
A: 10.6 µM (≈ 25 µg/mL)

Q: With `CC(C)C[C@H](NC(=O)[C@H](C)NC(=O)CNC(=O)[C@H](CC(C)C)NC(=O)[C@@H](N)Cc1ccccc1)C(=O)N[C@@H](Cc1ccccc1)C(=O)N[C@@H](CCCCN)C(=O)N[C@H](C(=O)N[C@@H](C)C(=O)N[C@@H](CO)C(=O)N[C@@H](Cc1c[nH]c2ccccc12)C(=O)O)C(C)C` [FLGALFKVASW] as the compound, how does the MIC (Proteus mirabilis) read?
A: ≥ 161 µM

Q: What about the MIC (Escherichia coli) of the same compound?
A: > 161 µM

Q: What about the MIC (Bacillus subtilis) of the same compound?
A: ≥ 161 µM

Q: And the MIC (Staphylococcus aureus)?
A: > 161 µM

Q: And the MIC (Salmonella typhimurium)?
A: ≥ 161 µM

Q: What about the MIC (Micrococcus luteus) of the same compound?
A: ≥ 161 µM

Q: What about the MIC [8] of the same compound?
A: ≥ 161 µM

Q: What about the MIC (Shigella dysenteriae) of the same compound?
A: ≥ 161 µM

Q: And the MIC (Pseudomonas aeruginosa)?
A: > 161 µM

Q: What about the MIC (Klebsiella pneumoniae) of the same compound?
A: > 161 µM

Q: How did the MIC (Proteus mirabilis) turn out when `CC(C)C[C@H](NC(=O)[C@H](C)NC(=O)[C@H](Cc1c[nH]c2ccccc12)NC(=O)[C@H](CC(C)C)NC(=O)[C@@H](N)Cc1ccccc1)C(=O)N[C@@H](Cc1ccccc1)C(=O)N[C@@H](CCCCN)C(=O)N[C@H](C(=O)N[C@@H](C)C(=O)N[C@@H](CO)C(=O)N[C@@H](CCCCN)C(=O)O)C(C)C` [FLWALFKVASK] was run?
A: ≥ 153 µM

Q: What about the MIC (Escherichia coli) of the same compound?
A: 76.4 µM (≈ 100 µg/mL)

Q: And the MIC (Bacillus subtilis)?
A: 9.54 µM (≈ 12.5 µg/mL)

Q: What about the MIC (Staphylococcus aureus) of the same compound?
A: 9.54 µM (≈ 12.5 µg/mL)

Q: And the MIC (Salmonella typhimurium)?
A: ≥ 153 µM

Q: And the MIC (Micrococcus luteus)?
A: ≥ 38.2 µM

Q: What about the MIC [8] of the same compound?
A: 19.1 µM (≈ 25 µg/mL)

Q: What about the MIC (Shigella dysenteriae) of the same compound?
A: ≥ 153 µM

Q: And the MIC (Pseudomonas aeruginosa)?
A: > 153 µM

Q: What about the MIC (Klebsiella pneumoniae) of the same compound?
A: 76.4 µM (≈ 100 µg/mL)

Q: `CC[C@H](C)[C@H](NC(=O)[C@H](CCCCN)NC(=O)[C@H](CCCCN)NC(=O)[C@H](Cc1c[nH]c2ccccc12)NC(=O)[C@H](CC(N)=O)NC(=O)[C@@H](N)C(C)C)C(=O)N[C@@H](CC(C)C)C(=O)N1CCC[C@H]1C(=O)N[C@@H](CCCCN)C(=O)N[C@H](C(=O)N[C@H](C(=O)N[C@@H](CCCCN)C(=O)N[C@H](C(=O)N[C@@H](C)C(=O)N[C@@H](CCCCN)C(N)=O)C(C)C)[C@@H](C)CC)[C@@H](C)CC` [VNWKKILPKIIKVAK] was tested. Which MIC (Escherichia coli B) did it give?
A: 2.5 µM (≈ 4.44 µg/mL)

Q: And the MIC (Staphylococcus aureus)?
A: 80 µM (≈ 142 µg/mL)

Q: And the MIC (Bacillus subtilis 168)?
A: 0.7 µM (≈ 1.24 µg/mL)

Q: And the MIC (Pseudomonas aeruginosa)?
A: 100 µM (≈ 178 µg/mL)

Q: Which MIC [9] does the source give for `CC(C)C[C@H](NC(=O)CNC(=O)[C@H](C)NC(=O)[C@H](CC(C)C)NC(=O)[C@H](CC(C)C)NC(=O)[C@H](CCCCN)NC(=O)[C@H](CC(C)C)NC(=O)[C@@H](N)Cc1ccccc1)C(=O)N[C@@H](CC(C)C)C(=O)N[C@@H](CCCCN)C(=O)N[C@@H](CC(N)=O)C(=O)N[C@@H](Cc1ccccc1)C(=O)N[C@@H](C)C(=O)O` [FLKLLAGLLKNFA] here?
A: ≥ 34.5 µM

Q: And the MIC [10]?
A: > 69.1 µM

Q: And the MIC [11]?
A: ≥ 69.1 µM

Q: For `CC[C@H](C)[C@@H]1NC(=O)[C@H](CCCCN)NC(=O)[C@@H](NC(=O)[C@H](Cc2ccccc2)NC(=O)[C@H](CC(C)C)NC(=O)[C@H](CCCCN)NC(=O)[C@@H]2CCCN2C(=O)[C@H](CC(C)C)NC(=O)[C@H](Cc2ccccc2)NC(=O)[C@H](CC(N)=O)NC(=O)[C@H](C)NC(=O)[C@H](C)NC(=O)[C@H](CC(C)C)NC(=O)[C@H](CO)NC(=O)[C@@H](NC(=O)[C@H](C)NC(=O)[C@H](CC(C)C)NC(=O)[C@@H]2CCCN2C(=O)[C@H](CC(C)C)NC(=O)[C@@H](N)Cc2ccccc2)C(C)C)CSSC[C@@H](C(=O)O)NC(=O)[C@H](CCCCN)NC(=O)[C@H](CCCCN)NC(=O)[C@H]([C@@H](C)O)NC1=O` [FLPLAVSLAANFLPKLFCKITKKC], which MIC [6] is on record?
A: 2.06 µM (≈ 5.5 µg/mL)

Q: And the MIC [7]?
A: 2.81 µM (≈ 7.49 µg/mL)

Q: And the MIC (Shigella dysenteriae)?
A: 0.825 µM (≈ 2.2 µg/mL)

Q: And the MIC [4]?
A: 2.44 µM (≈ 6.5 µg/mL)
